Measured values taken from US11713338B2, “Cyclic peptides multimers targeting α-4-β-7 integrin” (priority 2016, dated 2023).

Columns and labels:
[1] = molecular target: T1, recombinant integrin α4β1 (Homo sapiens, UniProt P05556+P13612); assay: Integrin α4β1—VCAM-1 competition ELISA; type: binding; details: read-out: ELISA a4b1 Assay IC50
T1 construct: purchased R&D Systems 5397-A3-050
In short: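 Detection of bound ligand used HRP-conjugated anti-human IgG Fc, 1 h with agitation at room temperature. This followed a 2 h room-temperature, 300 rpm equilibration of compound in the coated wells. Washes were done in 50 mM Tris, 100 mM NaCl, 1 mM MnCl2, 0.05% Tween.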

[2] = molecular target: T2, recombinant integrin α4β7 (Homo sapiens, UniProt P13612+P26010, DEL724-798); assay: Integrin α4β7—MAdCAM-1 ELISA competition assay; type: binding; details: for ELISA Assay Ratio b1/b7: ratio of a4b1 to a4b7 ELISA IC50; for IC50: read-out: ELISA a4b7 Assay IC50
T2 construct: purchased R&D Systems 5397-A3-050
T2 sequence (P13612 34-970 limits assumed): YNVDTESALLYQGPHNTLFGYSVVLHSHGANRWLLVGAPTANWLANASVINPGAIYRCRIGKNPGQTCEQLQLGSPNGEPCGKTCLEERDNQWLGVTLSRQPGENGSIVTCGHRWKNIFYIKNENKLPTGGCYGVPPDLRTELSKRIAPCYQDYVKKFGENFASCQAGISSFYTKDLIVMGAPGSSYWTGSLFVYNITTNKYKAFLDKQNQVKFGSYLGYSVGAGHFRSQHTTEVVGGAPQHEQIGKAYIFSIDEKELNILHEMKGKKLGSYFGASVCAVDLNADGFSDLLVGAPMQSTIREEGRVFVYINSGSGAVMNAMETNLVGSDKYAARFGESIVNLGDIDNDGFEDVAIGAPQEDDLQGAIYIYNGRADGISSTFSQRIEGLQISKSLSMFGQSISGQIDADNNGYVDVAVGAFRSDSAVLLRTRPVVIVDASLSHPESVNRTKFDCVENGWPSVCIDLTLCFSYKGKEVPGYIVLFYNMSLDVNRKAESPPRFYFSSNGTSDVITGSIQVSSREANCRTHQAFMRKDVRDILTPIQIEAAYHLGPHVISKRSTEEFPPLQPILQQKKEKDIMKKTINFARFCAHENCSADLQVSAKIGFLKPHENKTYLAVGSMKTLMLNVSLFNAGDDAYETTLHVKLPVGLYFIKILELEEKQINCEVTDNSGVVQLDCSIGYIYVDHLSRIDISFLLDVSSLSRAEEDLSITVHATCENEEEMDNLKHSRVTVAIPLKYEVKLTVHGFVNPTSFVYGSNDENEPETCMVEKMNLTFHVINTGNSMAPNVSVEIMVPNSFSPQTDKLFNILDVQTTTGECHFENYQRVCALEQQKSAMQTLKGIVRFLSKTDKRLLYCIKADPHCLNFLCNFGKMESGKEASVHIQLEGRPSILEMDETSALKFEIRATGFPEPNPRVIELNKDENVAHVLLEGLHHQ
T2 sequence (P26010 20-723 limits assumed): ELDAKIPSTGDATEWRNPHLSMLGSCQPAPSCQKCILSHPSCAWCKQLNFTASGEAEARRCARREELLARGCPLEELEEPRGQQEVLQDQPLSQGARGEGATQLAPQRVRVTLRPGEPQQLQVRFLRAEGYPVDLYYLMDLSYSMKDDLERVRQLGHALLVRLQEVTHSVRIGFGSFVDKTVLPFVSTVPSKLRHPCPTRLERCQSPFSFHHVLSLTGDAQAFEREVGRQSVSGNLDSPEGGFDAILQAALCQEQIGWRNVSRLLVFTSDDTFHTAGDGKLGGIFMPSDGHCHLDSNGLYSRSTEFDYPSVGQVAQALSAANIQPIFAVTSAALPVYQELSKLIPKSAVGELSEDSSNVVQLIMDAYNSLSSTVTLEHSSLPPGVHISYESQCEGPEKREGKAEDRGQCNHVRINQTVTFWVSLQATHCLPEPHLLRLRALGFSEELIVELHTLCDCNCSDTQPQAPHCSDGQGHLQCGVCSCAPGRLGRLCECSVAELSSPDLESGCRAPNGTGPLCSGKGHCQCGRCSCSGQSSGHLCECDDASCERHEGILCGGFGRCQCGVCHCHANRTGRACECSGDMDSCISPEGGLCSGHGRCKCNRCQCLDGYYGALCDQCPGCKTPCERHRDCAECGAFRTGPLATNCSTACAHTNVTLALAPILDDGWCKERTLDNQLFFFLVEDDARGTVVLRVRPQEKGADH

T1 sequence (P05556 21-728 limits assumed, one chain of several): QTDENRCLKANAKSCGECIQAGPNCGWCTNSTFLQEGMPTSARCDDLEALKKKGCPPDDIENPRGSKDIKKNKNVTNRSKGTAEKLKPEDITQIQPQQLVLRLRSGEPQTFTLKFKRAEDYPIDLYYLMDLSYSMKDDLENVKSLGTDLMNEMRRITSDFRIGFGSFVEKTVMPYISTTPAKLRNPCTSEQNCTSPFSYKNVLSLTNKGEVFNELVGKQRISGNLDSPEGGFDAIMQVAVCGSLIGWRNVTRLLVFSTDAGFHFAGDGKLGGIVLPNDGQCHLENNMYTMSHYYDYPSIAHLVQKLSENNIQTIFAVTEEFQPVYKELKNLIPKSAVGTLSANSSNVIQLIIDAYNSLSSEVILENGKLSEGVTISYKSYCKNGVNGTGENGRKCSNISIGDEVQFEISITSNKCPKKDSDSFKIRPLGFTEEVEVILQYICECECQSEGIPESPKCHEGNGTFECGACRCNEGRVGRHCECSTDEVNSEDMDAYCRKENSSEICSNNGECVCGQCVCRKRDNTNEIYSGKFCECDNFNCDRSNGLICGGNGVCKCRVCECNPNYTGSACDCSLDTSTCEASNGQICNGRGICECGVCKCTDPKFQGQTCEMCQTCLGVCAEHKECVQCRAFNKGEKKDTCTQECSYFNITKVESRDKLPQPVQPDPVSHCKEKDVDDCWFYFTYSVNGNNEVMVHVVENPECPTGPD

Compound	IC50 [1] [nM]	ELISA Assay Ratio b1/b7 [2]	IC50 [2] [nM]
COc1cccc(-c2ccccc2C[C@@H]2NC(=O)[C@@H]3CCCN3[C@H](C(=O)NC(C)(C)C)[C@H](C)NC(=O)[C@H]([C@@H](C)O)NC(=O)[C@H](CC(=O)O)NC(=O)[C@H](CC(C)C)NC(=O)[C@H]3CCCCN3C2=O)c1 [Compound 136]	209	6.6	32
CC(C)C[C@@H]1NC(=O)C[C@H](CCCCN)NC(=O)CN(Cc2ccccc2)C(=O)[C@@H]2CCCN2[C@H](C(=O)NC(C)(C)C)[C@H](C)NC(=O)[C@H]([C@@H](C)O)NC(=O)[C@H](CC(=O)O)NC1=O [Compound 296]	14700	94.8	–
CC(C)C[C@@H]1NC(=O)CN(C)C(=O)[C@H](Cc2cccc3ccccc23)NC(=O)[C@@H]2CCCN2[C@H](C(=O)NC(C)(C)C)[C@H](C)NC(=O)[C@H]([C@@H](C)O)NC(=O)[C@H](CC(=O)O)NC1=O [Compound 117]	1380	8.7	158
CC(C)C[C@@H]1NC(=O)c2ccc(-c3ccncc3)c(c2)CNC(=O)[C@H](Cc2ccc(O)cc2)NC(=O)[C@@H]2CCCN2[C@H](C(=O)NC(C)(C)C)[C@H](C)NC(=O)[C@H]([C@@H](C)O)NC(=O)[C@H](CC(=O)O)NC1=O [Compound 337]	177	2.9	61
C[C@@H]1NC(=O)[C@H]([C@@H](C)O)NC(=O)[C@H](CC(=O)O)NC(=O)[C@H](CC(C)(C)C)NC(=O)[C@H]2CCCCN2C(=O)[C@H](Cc2ccc(O)cc2)NC(=O)[C@@H]2CCCN2[C@@H]1C(=O)NC(C)(C)C [Compound 150]	447	8.2	54
CC(C)C[C@@H]1NC(=O)C[C@H](CCCCN)NC(=O)[C@H](Cc2ccccc2-c2ccc(N3CCNCC3)cc2)NC(=O)[C@@H]2CCCN2[C@H](C(=O)NC(C)(C)C)[C@H](C)NC(=O)[C@H]([C@@H](C)O)NC(=O)[C@H](CC(=O)O)NC1=O [Compound 271]	1150	34.6	–
CC(C)C[C@@H]1NC(=O)[C@H](Cc2ccccc2)NC(=O)[C@@H]2C[C@@H](F)CN2[C@H](C(=O)NC(C)(C)C)[C@H](C)NC(=O)[C@H]([C@@H](C)O)NC(=O)[C@H](CC(=O)O)NC1=O [Compound 45]	238	3.2	74
COc1cccc(Cl)c1-c1ccc(C[C@@H]2NC(=O)[C@@H]3CCCN3[C@H](C(=O)NC(C)(C)C)[C@H](C)NC(=O)[C@H]([C@@H](C)O)NC(=O)[C@H](CC(=O)O)NC(=O)[C@H](CC(C)C)NC(=O)C[C@H](CCCCN)NC2=O)cc1 [Compound 269]	1760	31.6	56
CC(C)C[C@@H]1NC(=O)[C@H]2CCCCN2C(=O)[C@H](Cc2ccccc2I)NC(=O)[C@@H]2CCCN2[C@H](C(=O)NC(C)(C)C)[C@H](C)NC(=O)[C@H]([C@@H](C)O)NC(=O)[C@H](CC(=O)O)NC1=O [Compound 133]	80	5.3	15
CC(C)C[C@@H]1NC(=O)[C@@H](CCCCN)NC(=O)[C@H](Cc2ccc(O)cc2)NC(=O)[C@@H]2CCCN2[C@H](C(=O)NC(C)(C)C)[C@H](C)NC(=O)[C@H]([C@@H](C)O)N(C)C(=O)[C@H](CC(=O)O)NC1=O [Compound 121]	2190	11.4	192
Cc1cccc(C)c1-c1ccc(C[C@@H]2NC(=O)[C@@H]3CCCN3[C@H](C(=O)NC(C)(C)C)[C@H](C)NC(=O)[C@H]([C@@H](C)O)NC(=O)[C@H](CC(=O)O)NC(=O)[C@H](CC(C)C)NC(=O)C[C@H](CCCCN)NC2=O)cc1 [Compound 268]	1870	24.6	76
CC(C)C[C@@H]1NC(=O)C[C@H](CCCCN)NC(=O)C2(Cc3ccccc3C2)NC(=O)[C@@H]2CCCN2[C@H](C(=O)NC(C)(C)C)[C@H](C)NC(=O)[C@H]([C@@H](C)O)NC(=O)[C@H](CC(=O)O)NC1=O [Compound 288]	1660	12.2	136
Cc1cccc(C)c1-c1cccc(C[C@@H]2NC(=O)[C@@H]3CCCN3[C@H](C(=O)NC(C)(C)C)[C@H](C)NC(=O)[C@H]([C@@H](C)O)NC(=O)[C@H](CC(=O)O)NC(=O)[C@H](CC(C)C)NC(=O)C[C@H](CCCCN)NC2=O)c1 [Compound 265]	1820	46.2	39
CC(C)C[C@@H]1NC(=O)C2(CCCC2)NC(=O)[C@@H]2CCCN2[C@H](C(=O)NC(C)(C)C)[C@H](C)NC(=O)[C@H]([C@@H](C)O)NC(=O)[C@H](CC(=O)O)NC1=O [Compound 88]	166	14.9	11
CC(C)C[C@@H]1NC(=O)CN(C)C(=O)[C@H](Cc2cccc(I)c2)NC(=O)[C@@H]2CCCN2[C@H](C(=O)NC(C)(C)C)[C@H](C)NC(=O)[C@H]([C@@H](C)O)NC(=O)[C@H](CC(=O)O)NC1=O [Compound 106]	1110	18.7	59
CC(C)C[C@@H]1NC(=O)[C@H]2CCCCN2C(=O)[C@H](Cc2cscn2)NC(=O)[C@@H]2CCCN2[C@H](C(=O)NC(C)(C)C)[C@H](C)NC(=O)[C@H]([C@@H](C)O)NC(=O)[C@H](CC(=O)O)NC1=O [Compound 131]	80	3.1	26
CC(C)C[C@@H]1NC(=O)[C@H](Cc2csc(-c3ccccn3)n2)NC(=O)[C@@H]2CCCN2[C@H](C(=O)NC(C)(C)C)[C@H](C)NC(=O)[C@H]([C@@H](C)O)NC(=O)[C@H](CC(=O)O)NC1=O [Compound 95]	303	2.4	125
CC(C)C[C@@H]1NC(=O)[C@H]2CCCCN2C(=O)[C@@H]2CCCN2[C@H](C(=O)NC(C)(C)C)[C@H](C)NC(=O)[C@H]([C@@H](C)O)NC(=O)[C@H](CC(=O)O)NC1=O [Compound 51]	102	3.3	31
CC[C@@H](C)[C@@H]1NC(=O)[C@H](CC(=O)O)NC(=O)[C@H](CC(C)C)NC(=O)C[C@H](CCCCN)NC(=O)[C@H](Cc2ccc(CN)cc2)NC(=O)[C@@H]2CCCN2[C@H](C(=O)NC(C)(C)C)[C@H](C)NC1=O [Compound 285]	553	6.2	89
CC(C)C[C@@H]1NC(=O)C[C@H](CCCCN)NC(=O)C2(CCNCC2)NC(=O)[C@@H]2CCCN2[C@H](C(=O)NC(C)(C)C)[C@H](C)NC(=O)[C@H]([C@@H](C)O)NC(=O)[C@H](CC(=O)O)NC1=O [Compound 275]	779	7.7	101
CC(C)C[C@@H]1NC(=O)[C@H](CCc2ccccc2)NC(=O)[C@@H]2CCCN2[C@H](C(=O)NC(C)(C)C)[C@H](C)NC(=O)[C@H]([C@@H](C)O)NC(=O)[C@H](CC(=O)O)NC1=O [Compound 6]	200	1.9	103
